Laboratory results from patent US4605744A, “Imidazole derivatives” (Hoffmann-La Roche Inc., priority 1985, dated 1986).
Counter-ions that a name gives are not always drawn.

Key:
Assay type in all cases: cell-based
E. coli 257 = assay: In vitro antibacterial activity (MIC, Mueller-Hinton broth); conditions: Escherichia coli, 257, E. coli 257; read-out: MIC
Procedure, shortened: (§1)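 Broth microdilution in Mueller-Hinton broth, drug range 128 to 0.008 μg/ml. Each well received 1.5 μl of a 10^-2 dilution of an overnight culture; sealed trays were incubated overnight at 37° C. MIC = lowest concentration with no visible growth.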

E. cloacae 9295 = assay: In vitro antibacterial activity (MIC); conditions: Enterobacter cloacae, 9295, E. cloacae 9295; read-out: MIC
Procedure, shortened: as §1

E. aerogenes 83 = assay: In vitro antibacterial activity (MIC); conditions: Klebsiella aerogenes, 83, E. aerogenes 83; read-out: MIC
Procedure, shortened: as §1

P. mirabilis 190 = assay: In vitro antibacterial activity (MIC); conditions: Proteus mirabilis, 190, P. mirabilis 190; read-out: MIC
Procedure, shortened: as §1

S. marcescens S714 = assay: In vitro antibacterial activity (MIC); conditions: Serratia marcescens, S714, S. marcescens S714; read-out: MIC
Procedure, shortened: as §1

P. mirabilis 90 = assay: In vitro antibacterial activity (MIC); conditions: Proteus mirabilis, 90, P. mirabilis 90; read-out: MIC
Procedure, shortened: as §1

E. cloacae 9570A = assay: In vitro antibacterial activity (MIC); conditions: Enterobacter cloacae, read-out: MIC
Procedure, shortened: as §1

P. aeruginosa 8780 = assay: In vitro antibacterial activity (MIC); conditions: Pseudomonas aeruginosa; P. aeruginosa 8780; read-out: MIC
Procedure, shortened: as §1

P. mirabilis 503-1136 = assay: In vitro antibacterial activity (MIC); conditions: Proteus mirabilis, 5031136, P. mirabilis 503-1136; read-out: MIC
Procedure, shortened: as §1

P. mirabilis 2 = assay: In vitro antibacterial activity (MIC); conditions: Proteus mirabilis, 2, P. mirabilis 2; read-out: MIC
Procedure, shortened: as §1

S. marcescens 5805 = assay: In vitro antibacterial activity (MIC); conditions: Serratia marcescens, 5805, S. marcescens 5805; read-out: MIC
Procedure, shortened: as §1

S. marcescens S4 = assay: In vitro antibacterial activity (MIC); conditions: Serratia marcescens, S4, S. marcescens S4; read-out: MIC
Procedure, shortened: as §1

K. pneumoniae A = assay: In vitro antibacterial activity (MIC); conditions: Klebsiella pneumoniae, K. pneumoniae A; read-out: MIC
Procedure, shortened: as §1

P. aeruginosa 6148B = assay: In vitro antibacterial activity (MIC); conditions: Pseudomonas aeruginosa, read-out: MIC
Procedure, shortened: as §1

S. pyogenes 4 = assay: In vitro antibacterial activity (MIC); conditions: Streptococcus pyogenes, 4, S. pyogenes 4; read-out: MIC
Procedure, shortened: as §1

E. cloacae P99 = assay: In vitro antibacterial activity (MIC); conditions: Enterobacter cloacae, P99, E. cloacae P99
Procedure, shortened: as §1

S. marcescens S5 = assay: In vitro antibacterial activity (MIC); conditions: Serratia marcescens, S5, S. marcescens S5; read-out: MIC
Procedure, shortened: as §1

E. cloacae 5699 = assay: In vitro antibacterial activity (MIC); conditions: Enterobacter cloacae, 5699, E. cloacae 5699; read-out: MIC
Procedure, shortened: as §1

K. pneumoniae HE7 = assay: In vitro antibacterial activity (MIC); conditions: Klebsiella pneumoniae; K. pneumoniae HE7; read-out: MIC
Procedure, shortened: as §1

E. cloacae 24 = assay: In vitro antibacterial activity (MIC); conditions: Enterobacter cloacae, 24, E. cloacae 24; read-out: MIC
Procedure, shortened: as §1

K. pneumoniae 8357 = assay: In vitro antibacterial activity (MIC); conditions: Klebsiella pneumoniae, 8357, K. pneumoniae 8357; read-out: MIC
Procedure, shortened: as §1

P. vulgaris ATCC 6380 = assay: In vitro antibacterial activity (MIC); conditions: Proteus vulgaris, ATCC6380, P. vulgaris ATCC 6380; read-out: MIC
Procedure, shortened: as §1

K. pneumoniae 4964 = assay: In vitro antibacterial activity (MIC); conditions: Klebsiella pneumoniae, 4964, K. pneumoniae 4964; read-out: MIC
Procedure, shortened: as §1

P. aeruginosa 5712 = assay: In vitro antibacterial activity (MIC); conditions: Pseudomonas aeruginosa; P. aeruginosa 5712; read-out: MIC
Procedure, shortened: as §1

S. aureus Giorgio = assay: In vitro antibacterial activity (MIC); conditions: Staphylococcus aureus, S. aureus Giorgio; read-out: MIC
Procedure, shortened: as §1

S. marcescens SM = assay: In vitro antibacterial activity (MIC); conditions: Serratia marcescens, read-out: MIC
Procedure, shortened: as §1

S. pneumoniae SC = assay: In vitro antibacterial activity (MIC); conditions: Streptococcus pneumoniae, read-out: MIC
Procedure, shortened: as §1

E. aerogenes 8 = assay: In vitro antibacterial activity (MIC); conditions: Klebsiella aerogenes; E. aerogenes 8; read-out: MIC
Procedure, shortened: as §1

S. schottmuelleri = assay: In vitro antibacterial activity (MIC); conditions: read-out: MIC
Procedure, shortened: as §1

P. aeruginosa POW 151 = assay: In vitro antibacterial activity (MIC); conditions: Pseudomonas aeruginosa, POW151
Procedure, shortened: as §1

P. aeruginosa 503-820 = assay: In vitro antibacterial activity (MIC); conditions: Pseudomonas aeruginosa, 503820; P. aeruginosa 503-820; read-out: MIC
Procedure, shortened: as §1

S. marcescens S147 = assay: In vitro antibacterial activity (MIC); conditions: Serratia marcescens; S. marcescens S147; read-out: MIC
Procedure, shortened: as §1

S. aureus Smith = assay: In vitro antibacterial activity (MIC); conditions: Staphylococcus aureus, S. aureus Smith; read-out: MIC
Procedure, shortened: as §1

K. pneumoniae 503-994 = assay: In vitro antibacterial activity (MIC); conditions: Klebsiella pneumoniae, 503994, K. pneumoniae 503-994; read-out: MIC
Procedure, shortened: as §1

P. mirabilis 620A = assay: In vitro antibacterial activity (MIC); conditions: Proteus mirabilis, 620A, P. mirabilis 620A; read-out: MIC
Procedure, shortened: as §1

P. vulgaris 101 = assay: In vitro antibacterial activity (MIC); conditions: Proteus vulgaris, 101, P. vulgaris 101; read-out: MIC
Procedure, shortened: as §1

E. aerogenes 503-478 = assay: In vitro antibacterial activity (MIC); conditions: Klebsiella aerogenes, 503478, E. aerogenes 503-478; read-out: MIC
Procedure, shortened: as §1

S. marcescens S3 = assay: In vitro antibacterial activity (MIC); conditions: Serratia marcescens; S. marcescens S3; read-out: MIC
Procedure, shortened: as §1

P. vulgaris 100 = assay: In vitro antibacterial activity (MIC); conditions: Proteus vulgaris; P. vulgaris 100; read-out: MIC
Procedure, shortened: as §1

P. rettgeri ATCC 9250 = assay: In vitro antibacterial activity (MIC); conditions: Providencia rettgeri, ATCC9250, P. rettgeri ATCC 9250; read-out: MIC
Procedure, shortened: as §1

C. freundii 8ASM = assay: In vitro antibacterial activity (MIC); conditions: Citrobacter freundii, 8ASM, C. freundii 8ASM; read-out: MIC
Procedure, shortened: as §1

K. pneumoniae 5096 = assay: In vitro antibacterial activity (MIC); conditions: Klebsiella pneumoniae; K. pneumoniae 5096; read-out: MIC
Procedure, shortened: as §1

S. marcescens S2 = assay: In vitro antibacterial activity (MIC); conditions: Serratia marcescens; S. marcescens S2; read-out: MIC
Procedure, shortened: as §1

S. aureus 1059B = assay: In vitro antibacterial activity (MIC); conditions: Staphylococcus aureus, read-out: MIC
Procedure, shortened: as §1

E. cloacae 214 = assay: In vitro antibacterial activity (MIC); conditions: Enterobacter cloacae, 214, E. cloacae 214; read-out: MIC
Procedure, shortened: as §1

`CC1(C)S[C@@H]2[C@H](N=CN3CCC(C4=NCCN4)CC3)C(=O)N2[C@H]1C(=O)O` [L, [2S-(2alpha,5alpha,6beta)]-6-[[[4-(4,5-dihydro-1H-imidazol-2-yl)-1-piperidinyl]methylene]amino]-3,3-dimethyl-7-oxo-4-thia-1-azabicyclo[3.2.0]heptane-2-carboxylic acid hydrochloride] was tested, and the MIC (E. coli 257) was 1 µg/mL, the MIC (E. cloacae 9295) was 2 µg/mL and the MIC (E. aerogenes 83) was 2 µg/mL. The MIC (P. mirabilis 190) was 0.5 µg/mL, the MIC (S. marcescens S714) was 2 µg/mL and the MIC (P. mirabilis 90) was 2 µg/mL. For the same molecule, the MIC (E. cloacae 9570A) was 2 µg/mL, the MIC (P. aeruginosa 8780) was > 128 µg/mL and the MIC (P. mirabilis 503-1136) was 8 µg/mL. For the same molecule, the MIC (P. mirabilis 2) was 1 µg/mL, the MIC (S. marcescens 5805) was 8 µg/mL and the MIC (S. marcescens S4) was 2 µg/mL. The MIC (K. pneumoniae A) was 0.25 µg/mL, the MIC (P. aeruginosa 6148B) was 128 µg/mL and the MIC (S. pyogenes 4) was 0.5 µg/mL. It also gave an MIC (E. cloacae P99) of 0.25 µg/mL, an MIC (S. marcescens S5) of 4 µg/mL and an MIC (E. cloacae 5699) of 1 µg/mL. For the same molecule, the MIC (K. pneumoniae HE7) was > 128 µg/mL, the MIC (E. cloacae 24) was 1 µg/mL and the MIC (K. pneumoniae 8357) was 2 µg/mL. For the same molecule, the MIC (P. vulgaris ATCC 6380) was 0.25 µg/mL, the MIC (K. pneumoniae 4964) was 64 µg/mL and the MIC (P. aeruginosa 5712) was > 128 µg/mL. The MIC (S. aureus Giorgio) was 2 µg/mL, the MIC (S. marcescens SM) was 1 µg/mL and the MIC (S. pneumoniae SC) was 1 µg/mL. The MIC (E. aerogenes 8) was 32 µg/mL, the MIC (S. schottmuelleri) was 0.25 µg/mL and the MIC (P. aeruginosa POW 151) was > 128 µg/mL. It also gave an MIC (P. aeruginosa 503-820) of 128 µg/mL, an MIC (S. marcescens S147) of 1 µg/mL and an MIC (S. aureus Smith) of 4 µg/mL. The MIC (K. pneumoniae 503-994) was 1 µg/mL, the MIC (P. mirabilis 620A) was > 128 µg/mL and the MIC (P. vulgaris 101) was 32 µg/mL. It also gave an MIC (E. aerogenes 503-478) of 8 µg/mL, an MIC (S. marcescens S3) of 0.5 µg/mL and an MIC (P. vulgaris 100) of 32 µg/mL. The MIC (P. rettgeri ATCC 9250) was 1 µg/mL, the MIC (C. freundii 8ASM) was 0.25 µg/mL and the MIC (K. pneumoniae 5096) was 64 µg/mL. For the same molecule, the MIC (S. marcescens S2) was 0.5 µg/mL, the MIC (S. aureus 1059B) was 64 µg/mL and the MIC (E. cloacae 214) was 1 µg/mL.
In the case of `CC1(C)S[C@@H]2[C@H](N=CN3CCC(CCCn4ccnc4)CC3)C(=O)N2[C@H]1C(=O)O` [C, [2S-(2alpha,5alpha,6beta)]-6-[[4-[3-(1H-imidazol-1-yl)propyl]-1-piperidinyl]methylene]amino]-3,3-dimethyl-7-oxo-4-thia-1-azabicyclo[3.2.0]heptane-2-carboxylic acid 1.2 mole hydrochloride monohydrate], the MIC (E. coli 257) is reported as 2 µg/mL, the MIC (E. cloacae 9295) is reported as 16 µg/mL and the MIC (E. aerogenes 83) is reported as > 128 µg/mL. For the same molecule, the MIC (P. mirabilis 190) was 8 µg/mL, the MIC (S. marcescens S714) was 32 µg/mL and the MIC (P. mirabilis 90) was 32 µg/mL. The MIC (E. cloacae 9570A) was 16 µg/mL, the MIC (P. aeruginosa 8780) was > 128 µg/mL and the MIC (P. mirabilis 503-1136) was 128 µg/mL. For the same molecule, the MIC (P. mirabilis 2) was 16 µg/mL, the MIC (S. marcescens 5805) was 32 µg/mL and the MIC (S. marcescens S4) was 32 µg/mL. For the same molecule, the MIC (K. pneumoniae A) was 4 µg/mL, the MIC (P. aeruginosa 6148B) was > 128 µg/mL and the MIC (S. pyogenes 4) was 64 µg/mL. The MIC (E. cloacae P99) was 8 µg/mL, the MIC (S. marcescens S5) was 64 µg/mL and the MIC (E. cloacae 5699) was 16 µg/mL. For the same molecule, the MIC (K. pneumoniae HE7) was > 128 µg/mL, the MIC (E. cloacae 24) was 32 µg/mL and the MIC (K. pneumoniae 8357) was 16 µg/mL. For the same molecule, the MIC (P. vulgaris ATCC 6380) was 4 µg/mL, the MIC (K. pneumoniae 4964) was > 128 µg/mL and the MIC (P. aeruginosa 5712) was > 128 µg/mL. For the same molecule, the MIC (S. aureus Giorgio) was > 128 µg/mL, the MIC (S. marcescens SM) was 8 µg/mL and the MIC (S. pneumoniae SC) was 64 µg/mL. The MIC (E. aerogenes 8) was > 128 µg/mL, the MIC (S. schottmuelleri) was 4 µg/mL and the MIC (P. aeruginosa POW 151) was > 128 µg/mL. For the same molecule, the MIC (P. aeruginosa 503-820) was > 128 µg/mL, the MIC (S. marcescens S147) was 16 µg/mL and the MIC (S. aureus Smith) was > 128 µg/mL. For the same molecule, the MIC (K. pneumoniae 503-994) was 32 µg/mL, the MIC (P. mirabilis 620A) was > 128 µg/mL and the MIC (P. vulgaris 101) was 128 µg/mL. The MIC (E. aerogenes 503-478) was 128 µg/mL, the MIC (S. marcescens S3) was 16 µg/mL and the MIC (P. vulgaris 100) was > 128 µg/mL. The MIC (P. rettgeri ATCC 9250) was 16 µg/mL, the MIC (C. freundii 8ASM) was 4 µg/mL and the MIC (K. pneumoniae 5096) was > 128 µg/mL. For the same molecule, the MIC (S. marcescens S2) was 16 µg/mL, the MIC (S. aureus 1059B) was > 128 µg/mL and the MIC (E. cloacae 214) was 16 µg/mL.
